These results are taken from US12168673B2 (Mitopower, Inc., priority 2022, dated 2024).

In data set [1] the test system is human hepatocytes. Briefly: Human hepatocyte stability.
Experimental: (§9) 10 mM stock solution of test compound was prepared in DMSO and diluted to a concentration of 1 mM with DMSO. Working concentration of 2 μM was prepared by further dilution with PBS. Preincubation mixture of 150 μL of hepatocyte cell suspension (1,000,000 cells/mL, INVITROGRO HT medium buffer), was added to vials for preincubation for 10 min @37° C.
(§10) 150 μL of 2 μM working stock of the test compound was added to the cell suspension and incubated at @37 C at 500 rpm. The reaction was stopped at 0, 15, 30, 60 and 90 min by precipitating 50 μL of the incubation mixture with 150 μL of acetonitrile. Samples were vortexed for 5 min at 1200 rpm and centrifuged at 4000 rpm for 10 min. 150 μL of the supernatant was diluted with 150 μL of water and injected in MS system (SCIEX, API 4500 Q Trap) for analysis.
The subject of data set [2] is primary human hepatocytes. Briefly: NAD+ in primary human hepatocytes (Example 12). The following applies: 10 μM, four hours of incubation. Type of data set: cell-based. As for the experimental part: (§1) Cryopreserved primary human hepatocytes, sourced from Lonza were cultured and were seeded into 6 well dishes with 0.5 million cells per well. […] The cells were later spun down and extracted. The supernatant was tested via LCMS/MS for NAD^+.

Data set [3] relates to primary human hepatocytes. Briefly: NAD+ in primary human hepatocytes at 250 μM (Example 10). Type of data set: cell-based. To be noted: four hours of incubation. As for the experimental part: as §1
Data set [4] has as its system HepG2 cells. Briefly: Cellular NAD+ levels in HepG2 cells, NAD cycling assay. The following applies: HepG2, 10 μM. The data set is classed as cell-based. As for the experimental part: HepG2 cells were seeded at densities of 1 million cells per well in a 6 well plate. The next day, cells were treated with test compounds for 4 hours and were harvested using the below protocol. Each well was washed once with 2 mL ice cold PBS which was removed and 400 μL 2M HClO4 (perchloric acid) was added to each well, which was scraped and the residue transferred to 1.5 mL tubes and spun down. 100 μL of the supernatant was transferred to a clean 1.5 mL vial and 150 μL KOH/MOPS 2M/0.6M (neutralization buffer) was added to each vial under vortex which was spun down. The pH was measured following the NAD cycling protocol.
NAD standards were prepared from 0 to 0.5 μM in water as per Table 7.
The cycling reaction was prepared as follows. 10 μl samples were added followed by water to bring the volume up to 25 μl. 25 μl of each standard was used in duplicates for the reaction. Then 50 μl of mix A (cycling mix) was added to the sample and standards. Mix A contained the following:
Reaction was initiated using 25 μL enzyme mix (15 U/ml of alcohol dehydrogenase+15 U/mL of malate dehydrogenase). The samples were incubated at 37° C. for 30 minutes in a water bath and the reaction terminated by heating in a water bath for 5 minutes at 80° C. Then 25 μl of the sample was used in the detection step. 100 μl mix B, which contains following components were added to the sample.
Reaction was initiated using a start reagent (prepared by mixing 10 μl of malate dehydrogenase and 10 μl of glutamate oxaloacetic transaminase in 1 ml of water. The reading were measured at 340 nm in a envision plate reader. The results are shown in FIGS. 4A-4D.

Data set [5] is described as follows: Human hepatocyte clearance. The following applies: human hepatocytes, 1 μM. Type of data set: in vitro ADME. As for the experimental part:
(§2) A hepatocyte vial was taken out from the liquid nitrogen tank and was thawed in a water bath maintained at 37° C. The thawed cell suspension was transferred into a torsion tube containing 50 mL of thawing media (Xenotech). The thawing media containing hepatocytes was centrifuged at 1000 rpm for 5 min, the supernatant was discarded and the pellet was resuspended in 2 ml of Xenotech OptiIncubate Media. The cells were counted by using a haemocytometer after mixing an aliquot of cell suspension with equal volume of trypan blue. The cell suspension was diluted to a working density of 2 million cells with DMEM media without FBS/incubation media.
(§3) The assay was performed in duplicates (n=2). 150 μL of 2 million cell working stock of hepatocyte cell suspension was added to a 24 well plate and incubated in a 37° C. incubator, with speed of 500 RPM for 10 min. 150 μL of 2 μM working stock of test compound was incubated separately. The reaction at 0, 15, 30, 60 and 90 min was stopped by precipitating 20 μL of incubation mixture with 200 μL of acetonitrile containing internal standard. […] The supernatant was separated and diluted 1:1 with water before injecting in LC-MS/MS analysis.

Data set [6] deals with human hepatocytes. Description: Human hepatocyte clearance. The data set is classed as in vitro ADME. As for the experimental part:
as §2, §3

Data set [7] in a line: PK study in rats (plasma). Type of data set: in vivo. The following applies: for half-life: read-out: T1/2 (converted); for AUC(0-t): read-out: AUC0-1.
Data set [8] relates to Huh-7 Cells. Briefly: Cellular NAD+ levels in Huh-7 cells (LCMS/MS). The data set is classed as cell-based. To be noted: 125 μm, four hours of incubation. As for the experimental part: (§4) Huh-7 Cells, sourced from NCCS Pune, were cultured in RPMI media containing FBS & Antibiotics. Cells from different flasks (80-90% confluent) were pooled into a 15 mL conical tube and centrifuged for 5 mins at 1200 rpm for 5 mins. The supernatant solution was discarded, and the pellet was washed with 5 mL sterile PBS (without Ca^2+ and Mg^2+). The tube was then centrifuged at 1200 rpm for 5 mins and the supernatant was discarded. The cell pellet was resuspended in 7 mL of RPMI media, and a cell count was done using 10 uL of the cell solution. 1.5 million cells from the cell solution were seeded into 1.5 mL microcentrifuge tubes. […] The tubes were placed in racks and gently swirled to mix the compounds into the media containing the cells. These tubes were then incubated for 4 hours in a 37° C. incubator at 5% CO2. After 4 hours of incubation the cells were spun down at 1000 rpm for 10 mins, the supernatant was discarded carefully, and cells were snap frozen in liquid nitrogen. When the samples were run, the extraction of the cells was on ice, cells were lysed using 20 uL deionized water and then ice cold 80% methanol containing the internal standard—Rac-Tenofovir D was added. The tubes were then vortexed at 2500 rpm for 8 minutes and then centrifuged at […] for 10 minutes. 150 uL of the supernatant was carefully transferred to HPLC vials and was analyzed for NAD^+ on the Abscised 4000 Q Trap LCMS/MS system. A C18, 3.5 μm, 2.1×100 mm, Bridge Column was used in the LC. The mobile phase consisted of 10 mM ammonium acetate with 0.1% acetic acid & 0.1% hexylamine as Solvent-A and 10 mM Ammonium acetate with 0.1% acetic acid and 0.1% hexylamine in 95/5 MeOH/H2O as Solvent-B. The gradient used was 0 mins-0.0% B, 0.5 mins-100% B, 1.5 mins-100% B, 3.0 mins-100% B, 3.1 mins-0.0% B, 7.0-STOP. The column flow rate was 0.5 mL/min. The sample injection volume was […].

The test system of data set [9] is Jurkat Cells. Briefly: Cellular NAD+ levels in Jurkat cells (LCMS/MS). Type of data set: cell-based. The following applies: 30 μM, four hours of incubation. As for the experimental part: Compounds 100, 101 and 102 were weighted out to prepare 60 μM stock solutions in RPMI media. 200 ng/mL solution of Rac-tenofovir d6 (Vivan Life-Sciences) was prepared in methanol (MeOH) and placed at −20° C. until use.
as §4, with “Jurkat Cells,” for “Huh-7 Cells,”, “flasks (90%” for “flasks (80-90%”, “Ca^2+ &” for “Ca^2+ and”, “acid and” for “acid &”

Data set [10] deals with human hepatocytes. The following applies: 1 μM.
Experimental: as §9, §10
In data set [11] the test system is Human Plasma Protein. Description: in vitro. As for the experimental part: (§5) The test compounds were weighed and prepared as 10 mM stocks in 100% DMSO. 10 μM is the final test concentration for all compounds.
(§6) The samples were prepared by spiking test compound(s) in plasma at 10 μM final concentration. 200 μL of plasma containing the test compound was added into the donor well (RED Chamber) of the insert. Simultaneously 350 μL of dialysis buffer (1×PBS) was added into the receiver well (white chamber). Two measurements were made for each test compound. The plate was covered with a sealer and incubated at 37° C. degrees on an orbital shaker at 500 rpm for 5 hours.
(§7) After incubation, 25 μl of plasma (RED chamber) and 25 μl of buffer (white chamber) samples were separately collected into separate centrifugation tubes. Plasma and buffer samples were precipitated with 200 μL of 100% acetonitrile containing internal standards. 25 μl of T0 (T Zero) plasma samples (samples before 5 hours incubation) were collected (To samples were processed immediately after the preparation of plasma working stock solution. These samples serve as a measure for calculating the percentage recovery of the test compound and precipitated using 100% acetonitrile containing internal standards). The samples were vortexed at 1000 rpm for 5 min and centrifuged at 4000 rpm for 10 min. The supernatant was diluted 2-fold with water and injected into LC-MS/MS.
(§8) The % of Plasma bound/unbound fraction was calculated by the following equation: % Unbound or % free=100*(Fc/Tc); % Recovery=100 (Fc+Tc)/[…] where Tc=Total compound concentration as determined by the calculated concentration on the plasma side of the membrane (concentration in plasma chamber), Fc=Free compound concentration as determined by the calculated concentration on the buffer side of the membrane (concentration in buffer chamber) and T0=Total compound concentration as determined before dialysis.

A short description of data set [12]: in vitro. To be noted: human, plasma. As for the experimental part:
as §5, §6, §7, §8

Like-named read-outs stand apart in the source and are kept apart here.

As to `COC(=O)[C@@H](C)N[P@](=O)(OC[C@H]1OC(OC(=O)c2cccnc2)[C@H](O)[C@@H]1O)Oc1ccccc1` (single isomer, unassigned) [Compound 103], the “% Parent Remaining” value in data set [1] (0 mins) is reported as 100%; in [1] (15 mins) it was 63%; in data set [1] (30 mins), 40%; in [1] (60 mins) it was 15%; in data set [1] (90 mins) it was 5%. Besides, the “NAD+ level increase compared to untreated cells” value in data set [2] and in [3] was “statistically significant NAD^+ level increases” in each case. Besides, the “NAD+ level increase at the lowest concentration” value in [4] is “statistically significant increase”. Further, the half-life at 1 μM in data set [5] (0-90 min, read-out: T½) stood at 22.2 min. Besides, the hepatocyte CLint at 1 μM in data set [5] (read-out: Intrinsic Clearance (CL Int)) was found to be 31.3 µL/min/1e6 cells. Besides, in data set [6], the “Remarks (clearance class)” value is on record as “High”.

As to `O=C(O)c1cccnc1` [Nicotinic acid], in [7] (rat, plasma, iv, 40 mg/kg), the concentration peaked (Cmax) at 1240 ± 833 µM, the Tmax (usually the time from dosing to the highest level) was determined as 15 min, the clearance (usually the volume of plasma or blood freed of the substance per unit of time) is 5.07 mL/min/kg and the AUC(0-t) was determined as 1080 ± 426 µM·h. Moreover, the half-life in data set [7] (rat, plasma, iv, 40 mg/kg, rats, Group 4: nicotinic acid 40 mg/kg IV) was 26.9 ± 16.6 min. Further, the Vd in [7] (rat, plasma, iv, 40 mg/kg, read-out: Vss) stood at 0.211 ± 0.156 L/kg. Further, in data set [7] (rat, plasma, po, 200 mg/kg), the Cmax (usually the highest concentration seen after dosing) was 519 ± 83.3 µM; the time of peak concentration (Tmax) was 79.8 ± 34.8 min; the bioavailability (in general, dose-corrected exposure relative to a reference, in per cent) was 29%; the AUC(0-t) is 1680 ± 305 µM·h. Also, the half-life in data set [7] (rat, plasma, po, 200 mg/kg, rats, Group 3: nicotinic acid 200 mg/kg PO) was 85.2 ± 25.8 min. Further, the “IV pharmacokinetics profile (in words)” value in data set [7] (rats, IV) was “No distribution phase”. Besides, the “NAD+ level increase compared to untreated cells” value in data set [8] is “showed an increase”. The “NAD+ level increase compared to untreated cells” value in data set [9] is on record as “showed statistical significance in terms of NAD^+ level increases”.

`CC(=O)CC(c1ccccc1)c1c(O)c2ccccc2oc1=O` (centres unmarked) [Warfarin, reference compound]: the “% Parent Remaining” value in data set [10] (0 h) came out at 100%; in data set [10] (0.25 h), 91%; in [10] (0.5 h), 89%; in data set [10] (1 h) it was 96%; in [10] (1.5 h), 96%. In addition, the “Remarks (binding class)” value in data set [11] was “High binding”. Further, the fraction unbound (commonly free concentration divided by total concentration) at 5 h, 10 μM in data set [12] (% Bound in plasma) was 0.0044; in data set [12] (% Unbound in plasma), 0.0054; in data set [12] (Fraction unbound), 0.005. Besides, the “Remarks (clearance class)” value in [6] was “Low*”.
